Source: BigSolDB 2.1

O=C1C=CC(=O)N1c1cc(F)c(Br)c(F)c1
Conditions | solubility (mole fraction)
in THF, 285 K | 0.0148
in THF, 288.45 K | 0.0162
in THF, 291.55 K | 0.0176
in THF, 294.25 K | 0.0185
in THF, 297.55 K | 0.02
in THF, 302.8 K | 0.0228
in THF, 306.65 K | 0.0249
in THF, 310.8 K | 0.0275
in THF, 315 K | 0.0303
in THF, 318.45 K | 0.0329
in THF, 321.45 K | 0.0355
in THF, 324.65 K | 0.0383
in THF, 327.65 K | 0.0409
in THF, 330.35 K | 0.0437
in THF, 333.65 K | 0.047
in THF, 336.25 K | 0.0497
in acetone, 287.65 K | 0.0071
in acetone, 291.85 K | 0.0081
in acetone, 295.55 K | 0.0092
in acetone, 298.35 K | 0.01
in acetone, 301.25 K | 0.0109
in acetone, 304.55 K | 0.012
in acetone, 307.6 K | 0.0131
in acetone, 309.45 K | 0.0139
in acetone, 311.95 K | 0.0152
in acetone, 313.95 K | 0.0159
in acetone, 316.55 K | 0.0174
in acetone, 319.55 K | 0.019
in acetone, 321.45 K | 0.0202
in acetone, 323.35 K | 0.0214
in acetone, 325.15 K | 0.0225
in acetonitrile, 291.95 K | 0.0028
in acetonitrile, 296.65 K | 0.0033
in acetonitrile, 299.25 K | 0.0037
in acetonitrile, 302.45 K | 0.004
in acetonitrile, 304.85 K | 0.0044
in acetonitrile, 307.15 K | 0.0049
in acetonitrile, 311.55 K | 0.0057
in acetonitrile, 316.95 K | 0.007
in acetonitrile, 320.15 K | 0.0078
in acetonitrile, 325.45 K | 0.0095
in acetonitrile, 328.55 K | 0.0107
in acetonitrile, 332.05 K | 0.0119
in acetonitrile, 338.65 K | 0.0146
in acetonitrile, 341.65 K | 0.0165
in acetonitrile, 347.25 K | 0.0198
in acetonitrile, 350.15 K | 0.0217
in chloroform, 289.25 K | 0.0055
in chloroform, 294.85 K | 0.0066
in chloroform, 296.65 K | 0.0069
in chloroform, 300.85 K | 0.0078
in chloroform, 302.75 K | 0.0082
in chloroform, 305.65 K | 0.0092
in chloroform, 307.45 K | 0.0096
in chloroform, 309.55 K | 0.0101
in chloroform, 311.65 K | 0.0108
in chloroform, 315.35 K | 0.012
in chloroform, 318.65 K | 0.0132
in chloroform, 322.15 K | 0.0146
in chloroform, 324.65 K | 0.0157
in chloroform, 326.45 K | 0.0166
in chloroform, 328.35 K | 0.0176
in chloroform, 330.65 K | 0.0188
in ethanol, 288.65 K | 0.0003
in ethanol, 293.59 K | 0.0003
in ethanol, 299.85 K | 0.0004
in ethanol, 305.72 K | 0.0006
in ethanol, 311.15 K | 0.0008
in ethanol, 318.15 K | 0.0011
in ethanol, 324.35 K | 0.0014
in ethanol, 327.85 K | 0.0016
in ethanol, 332.95 K | 0.002
in ethanol, 336.05 K | 0.0023
in ethanol, 339.65 K | 0.0027
in ethanol, 341.85 K | 0.003
in ethanol, 344.15 K | 0.0033
in ethanol, 346.15 K | 0.0036
in ethanol, 347.75 K | 0.0039
in pyridine, 285.55 K | 0.0116
in pyridine, 289.66 K | 0.0129
in pyridine, 293.95 K | 0.0144
in pyridine, 297.15 K | 0.0154
in pyridine, 300.85 K | 0.0169
in pyridine, 304.65 K | 0.0186
in pyridine, 310.05 K | 0.0214
in pyridine, 315.65 K | 0.0246
in pyridine, 318.65 K | 0.0265
in pyridine, 322.55 K | 0.0291
in pyridine, 328.45 K | 0.0341
in pyridine, 334.15 K | 0.0394
in pyridine, 337.95 K | 0.0432
in pyridine, 340.65 K | 0.0462
in pyridine, 344.85 K | 0.0514
in pyridine, 346.35 K | 0.0533
